How the values were obtained:
[1] = system: black bean aphids (Aphis fabae); test: Black bean aphid root-systemic test: solution pipetted into the bottle holding the field bean roots; type: in vivo; settings: read-out: mortality of the aphids owing to the root-systemic activity
Protocol: Pregerminated field bean seeds (Vicia faba) with seminal roots were transferred into amber glass bottles filled with tap water. Four milliliters of an aqueous solution of the formulated preparation to be tested were pipetted into the amber glass bottle. Then, the field bean was infested with approx. 100 black bean aphids (Aphis fabae). The plant and animals were then stored in a controlled-environment cabinet (16 hours light/day, 25° C., 40-60% atmospheric humidity). After storage for 3 and 6 days, the root-systemic action of the preparation on the aphids was determined. At a concentration of 300 ppm (based on active substance content), the preparations of Examples No. 1, 8, 20, 28, 30, 34, 36, 40, 52, 54, 56, 58, 118, 138, 146, 148, 154, 158, 176, 184, 368, 369, 370 caused 90-100% mortality of the aphids owing to the root-systemic activity.

[2] = system: black bean aphids (Aphis fabae); test: Black bean aphid test: plants and aphids immersed in solution of the formulated preparation; type: in vivo; settings: read-out: mortality of the aphids
Protocol: Pregerminated field bean seeds (Vicia faba) with seminal roots were transferred into amber glass bottles filled with tap water and then populated with approximately 100 black bean aphids (Aphis fabae). The plants and aphids were then immersed for 5 seconds in an aqueous solution of the formulated preparation to be tested. After the solution had been allowed to run off, the plants and animals were stored in a controlled-environment cabinet (16 hours light/day, 25° C., 40-60% atmospheric humidity). After storage for 3 and 6 days, the effect of the preparation on the aphids was determined.

With `FC(F)(F)c1ccncc1-c1nc(CC2OCCCO2)no1` [Example 8, 3-(1,3-Dioxan-2-ylmethyl)-5-(4-trifluoromethyl-3-pyridyl)-1,2,4-oxadiazole] the mortality at 300 ppm [1] was 90 to 100% and the mortality at 300 ppm [2] was 90 to 100%.
